{"source": "paper PMC3192245", "about": "(Proteins, 2011)", "molecular_target": "AtOPR3 (Arabidopsis thaliana, UniProt Q9FUP0)", "sequence (Q9FUP0 whole entry)": "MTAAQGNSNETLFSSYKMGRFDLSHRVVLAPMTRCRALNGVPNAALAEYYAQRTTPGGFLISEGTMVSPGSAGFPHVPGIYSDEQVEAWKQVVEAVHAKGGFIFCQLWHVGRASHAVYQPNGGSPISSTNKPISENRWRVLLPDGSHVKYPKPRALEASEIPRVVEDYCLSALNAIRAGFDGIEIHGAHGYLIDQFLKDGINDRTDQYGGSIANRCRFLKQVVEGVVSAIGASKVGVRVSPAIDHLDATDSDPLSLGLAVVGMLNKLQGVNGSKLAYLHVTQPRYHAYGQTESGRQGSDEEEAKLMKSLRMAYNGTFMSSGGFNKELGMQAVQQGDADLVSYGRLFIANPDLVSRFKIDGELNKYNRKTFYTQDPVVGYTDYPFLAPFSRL", "assay": "X-ray crystal structure, […] Å", "type": "binding", "conditions": "ternary complex with 8-iso PGA1; one FMN per monomer"}
{"smiles": "Cc1cc2nc3c(=O)[nH]c(=O)nc-3n(C[C@H](O)[C@H](O)[C@H](O)COP(=O)(O)O)c2cc1C", "note": "[FMN]", "values": [{"measurement": "X-ray crystal structure, 2.6 Å", "value": "each AtOPR3 monomer contains one FMN and one 8-iso PGA1 molecule"}]}
